Laboratory results reported in patent publication US20060004197A1, “Sulfonamide-based compounds as protein tyrosine kinase inhibitors” (priority 2004, published 2006).

Key:
Type in all cases: biochemical
Recombinant human Src = target: T1, Recombinant human Src (Homo sapiens, UniProt P12931); assay: Src tyrosine kinase activity, poly E4Y / 32P-ATP phosphorylation assay
T1 construct: made in house; host or cells: baculovirus-insect cell system

Recombinant Csk = Recombinant Csk (Homo sapiens, UniProt P41240); assay: Csk tyrosine kinase activity, poly E4Y / 32P-ATP phosphorylation assay
FGF receptor (FGFr) = assay: FGFr tyrosine kinase activity, poly E4Y / 32P-ATP phosphorylation assay
[1] = poly E4Y / 32P-ATP, Formula IV compounds
[2] = Table 2, Formula I compounds, NI = no inhibition at 100 μg/mL

Molecule	IC50 (Recombinant human Src; [1]) [µM]	IC50 (Recombinant Csk; [1]) [µM]	IC50 (μM) FGFr (FGF receptor (FGFr); [1])	IC50 (FGF receptor (FGFr); [1]) [µM]	IC50 (Recombinant human Src; [2]) [µM]	IC50 (Recombinant Csk; [2]) [µM]	IC50 (FGF receptor (FGFr); [2]) [µM]
COc1ccc(Oc2ccc(N(C)S(=O)(=O)c3ccc(C)cc3)c(OC)c2)cc1 [Compound 61, N-[2-methoxy-4-(4-methoxy-phenoxy)-phenyl]-N-methyl-4-toluenesulfonamide]	177	> 242	NI (NI = no inhibition at 100 μg/mL)	–	–	–	–
COc1ccc(Oc2ccc(NS(=O)(=O)c3ccc(C)cc3)c(OCCO)c2)cc1 [Compound 62, N-[2-(2-hydroxy-ethoxy)-4-(4-methoxy-phenoxy)-phenyl]-4-toluenesulfonamide]	126	15	NI (NI = no inhibition at 100 μg/mL)	–	–	–	–
COc1ccc(Oc2ccc(NS(=O)(=O)c3ccc(C)cc3)c(OCCCO)c2)cc1 [Compound 63, N-[2-(3-hydroxy-propoxy)-4-(4-methoxy-phenoxy)-phenyl]-4-toluenesulfonamide]	212	> 225	NI (NI = no inhibition at 100 μg/mL)	–	–	–	–
COc1ccc(Oc2ccc(NS(=O)(=O)c3ccc(C)cc3)c(OCC(O)CO)c2)cc1 (stereo not drawn) [Compound 64, N-[2-(2,3-dihydroxy-propoxy)-4-(4-methoxy-phenoxy)-phenyl]-4-toluenesulfonamide]	189	> 218	NI (NI = no inhibition at 100 μg/mL)	–	–	–	–
N-[4-chloro-2-(4-toluenesulfonylamino)-phenyl]-4-toluenesulfonamide [Compound 6]	–	–	–	–	1060	172	20.2

Further lines, results first:

IC50 (Recombinant human Src; [1]) [µM]	IC50 (Recombinant Csk; [1]) [µM]	IC50 (μM) FGFr (FGF receptor (FGFr); [1])	IC50 (FGF receptor (FGFr); [1]) [µM]	IC50 (Recombinant human Src; [2]) [µM]	IC50 (Recombinant Csk; [2]) [µM]	IC50 (FGF receptor (FGFr); [2]) [µM]	Molecule
169	> 225	NI (NI = no inhibition at 100 μg/mL)	–	–	–	–	COc1ccc(Oc2ccc(NS(=O)(=O)c3ccc(C)cc3)c(OCC(=O)O)c2)cc1 [Compound 65, [5-(4-methoxy-phenoxy)-2-(4-toluenesulfonylamino)-phenoxy]-acetic acid]
119	> 242	–	162	–	–	–	COc1ccc(OCc2ccc(OC)c(NS(=O)(=O)c3ccc(C)cc3)c2)cc1 [Compound 66, N-[2-methoxy-5-(4-methoxy-phenoxymethyl)-phenyl]-4-toluenesulfonamide]
133	303	NI (NI = no inhibition at 100 μg/mL)	–	–	–	–	COc1ccc(Oc2ccc(NS(=O)(=O)c3ccc(C)cc3)c(C(=O)O)c2)cc1 [Compound 68, 5-(4-methoxy-phenoxy)-2-(4-toluenesulfonylamino)-benzoic acid]
1970	986	NI (NI = no inhibition at 100 μg/mL)	–	–	–	–	Cc1ccc(S(=O)(=O)Nc2ccc(Sc3ccc(Cl)cc3)c([N+](=O)[O-])c2)cc1 [Compound 69, N-[4-(4-chloro-phenylsulfanyl)-3-nitro-phenyl]-4-toluenesulfonamide]
599	369	–	251	–	–	–	Cc1ccc(S(=O)(=O)Nc2ccc([N+](=O)[O-])c(Sc3ccc(Cl)cc3)c2)cc1 [Compound 70, N-[3-(4-chloro-phenylsulfanyl)-4-nitro-phenyl]-4-toluenesulfonamide]
